Experimental data: PMC10902181 (Journal of neurochemistry, 2023)
Read-outs that look alike come from different tables or passages of the source.

How the values were obtained:
Experiment in all cases: TEVC current recordings from Xenopus oocytes, channel blocker inhibition
Assay type in all cases: cell-based
GluN1/GluN2B-N615I = GluN1/GluN2B-N615I (Homo sapiens, UniProt Q05586+Q13224, N615I); details: for % inhibition: 2B-N615I, 300 μM blocker, −40 mV; for IC50: IC50, 2B-N615I, holding −40 mV
[1] = biological target: GluN2A-N614S-containing NMDARs (Homo sapiens, UniProt Q05586+Q12879, N614S); details: for % inhibition: 2A-N614S, 300 μM blocker, −40 mV; for IC50: IC50, 2A-N614S, holding −40 mV
WT GluN1/GluN2B = WT GluN1/GluN2B (Homo sapiens, UniProt Q05586+Q13224); details: for IC50: IC50, WT GluN1/WT 2B, holding −40 mV; for % inhibition: WT GluN1/WT 2B, 300 μM blocker, −40 mV
GluN1/GluN2B-N615K = GluN1/GluN2B-N615K (Homo sapiens, UniProt Q05586+Q13224, N615K); details: for % inhibition: 300 μM blocker, −40 mV
GluN1-G620R/GluN2A = GluN1-G620R/GluN2A (Homo sapiens, UniProt Q05586+Q12879, G620R); details: for % inhibition: 1-G620R/2A, 300 μM blocker, −40 mV; for IC50: IC50, 1-G620R/2A, holding −40 mV
[2] = biological target: GluN2B-W607C-containing NMDARs (Homo sapiens, UniProt Q05586+Q13224, W607C); details: for % inhibition: 2B-W607C, 300 μM blocker, −40 mV; for IC50: IC50, 2B-W607C, holding −40 mV
GluN1/GluN2A-L611Q = GluN1/GluN2A-L611Q (Homo sapiens, UniProt Q05586+Q12879, L611Q); details: for % inhibition: 2A-L611Q, 300 μM blocker, −40 mV; for IC50: IC50, 2A-L611Q, holding −40 mV
[3] = biological target: GluN2B-G611V-containing NMDARs (Homo sapiens, UniProt Q05586+Q13224, G611V); details: for % inhibition: 2B-G611V, 300 μM blocker, −40 mV; for IC50: IC50, 2B-G611V, holding −40 mV
[4] = biological target: GluN2B-N616K-containing NMDARs (Homo sapiens, UniProt Q05586+Q13224, N616K); details: for % inhibition: 2B-N616K, 300 μM blocker, −40 mV; for IC50: IC50, 2B-N616K, holding −40 mV
[5] = biological target: GluN2A-N615K-containing NMDARs (Homo sapiens, UniProt Q05586+Q12879, N615K); details: for % inhibition: 2A-N615K, 300 μM blocker, −40 mV; for IC50: IC50, 2A-N615K, holding −40 mV
WT GluN1/GluN2A = WT GluN1/GluN2A (Homo sapiens, UniProt Q05586+Q12879); details: for IC50: IC50, WT GluN1/WT 2A, holding −40 mV; for % inhibition: WT GluN1/WT 2A, 300 μM blocker, −40 mV
[6] = biological target: GluN2B-V618G-containing NMDARs (Homo sapiens, UniProt Q05586+Q13224, V618G); details: for % inhibition: 2B-V618G, 300 μM blocker, −40 mV; for IC50: IC50, 2B-V618G, holding −40 mV
[7] = biological target: GluN2B-V620M-containing NMDARs (Homo sapiens, UniProt Q05586+Q13224, V620M); details: for % inhibition: 2B-V620M, 300 μM blocker, −40 mV; for IC50: IC50, 2B-V620M, holding −40 mV

Structure (SMILES): COc1ccc2c(c1)[C@]13CCCC[C@@H]1[C@H](C2)N(C)CC3 [dextromethorphan]
- % inhibition (GluN1/GluN2B-N615I; w/ 1 mM Mg^2+): 94 ± 1.5% (11)
- % inhibition (GluN1/GluN2B-N615I; w/o Mg^2+): 95 ± 1.4% (14)
- IC50 (GluN1/GluN2B-N615I; w/ 1 mM Mg^2+): 17 µM
- IC50 (GluN1/GluN2B-N615I; w/o Mg^2+): 15 µM
- % inhibition ([1]; w/ 1 mM Mg^2+): 85 ± 2.7% (11)
- % inhibition ([1]; w/o Mg^2+): 85 ± 3.0% (10)^¥
- IC50 ([1]; w/ 1 mM Mg^2+): 32 µM
- IC50 ([1]; w/o Mg^2+): 22 µM
- IC50 (WT GluN1/GluN2B; w/ 1 mM Mg^2+): 22 µM
- IC50 (WT GluN1/GluN2B; w/o Mg^2+): 4.8 µM
- % inhibition (WT GluN1/GluN2B; w/ 1 mM Mg^2+): 90 ± 1.9% (18)
- % inhibition (WT GluN1/GluN2B; w/o Mg^2+): 95 ± 1.2% (15)
- IC50 (GluN1/GluN2B-N615K): > 300 µM
- % inhibition (GluN1/GluN2B-N615K; 2B-N615K, w/ 1 mM Mg^2+): 33 ± 3.7% (18) ^*^¥
- % inhibition (GluN1/GluN2B-N615K; 2B-N615K, w/o Mg^2+): 14 ± 2.7% (8)^¥
- IC50 (GluN1/GluN2B-N615K; 2B-N615K, w/ 1 mM Mg^2+, holding −40 mV): > 300 µM
- % inhibition (GluN1-G620R/GluN2A; w/ 1 mM Mg^2+): 96 ± 1.5% (8)^¥
- % inhibition (GluN1-G620R/GluN2A; w/o Mg^2+): 97 ± 1.4% (14)
- enhanced potency in comparison to WT NMDARs (GluN1-G620R/GluN2A; GluN1-G620R, absence of Mg^2+): 2.5 fold
- enhanced potency compared to the WT receptors (GluN1-G620R/GluN2A; GluN1-G620R, presence of 1 mM Mg^2+): 5.7 fold
- IC50 (GluN1-G620R/GluN2A; w/ 1 mM Mg^2+): 4.4 µM
- IC50 (GluN1-G620R/GluN2A; w/o Mg^2+): 4.4 µM
- % inhibition ([2]; w/ 1 mM Mg^2+): 95 ± 1.4% (12)
- % inhibition ([2]; w/o Mg^2+): 90 ± 2.8% (11)
- reduced potency in 1 mM Mg^2+ vs absence of Mg^2+ ([2]; GluN2B-W607C): 3 fold
- IC50 ([2]; w/ 1 mM Mg^2+): 11 µM
- IC50 ([2]; w/o Mg^2+): 3.7 µM
- % inhibition (GluN1/GluN2A-L611Q; w/ 1 mM Mg^2+): 89 ± 2.3% (8)
- % inhibition (GluN1/GluN2A-L611Q; w/o Mg^2+): 91 ± 1.4% (16)
- IC50 (GluN1/GluN2A-L611Q; w/ 1 mM Mg^2+): 36 µM
- IC50 (GluN1/GluN2A-L611Q; w/o Mg^2+): 27 µM
- % inhibition ([3]; w/ 1 mM Mg^2+): 97 ± 1.0% (10)
- % inhibition ([3]; w/o Mg^2+): 94 ± 2.3% (10)
- enhanced potency compared to the WT receptors ([3]; GluN2B-G611V, presence of 1 mM Mg^2+): 3.5 fold
- IC50 ([3]; w/ 1 mM Mg^2+): 6.2 µM
- IC50 ([3]; w/o Mg^2+): 3.6 µM
- % inhibition ([4]; w/ 1 mM Mg^2+): 93 ± 1.6% (7)
- % inhibition ([4]; w/o Mg^2+): 94 ± 1.7% (10)
- enhanced potency compared to the WT receptors ([4]; GluN2B-N616K, presence of 1 mM Mg^2+): 4.9 fold
- IC50 ([4]; w/ 1 mM Mg^2+): 4.5 µM
- IC50 ([4]; w/o Mg^2+): 3.2 µM
- % inhibition ([5]; w/ 1 mM Mg^2+): 97 ± 0.9% (12)^¥
- % inhibition ([5]; w/o Mg^2+): 98 ± 1.4% (8)
- enhanced potency in comparison to WT NMDARs ([5]; GluN2A-N615K, absence of Mg^2+): 2.7 fold
- enhanced potency compared to the WT receptors ([5]; GluN2A-N615K, presence of 1 mM Mg^2+): 8.3 fold
- IC50 ([5]; w/ 1 mM Mg^2+): 3 µM
- IC50 ([5]; w/o Mg^2+): 3.8 µM
- IC50 (WT GluN1/GluN2A; w/ 1 mM Mg^2+): 25 µM
- IC50 (WT GluN1/GluN2A; w/o Mg^2+): 11 µM
- % inhibition (WT GluN1/GluN2A; w/ 1 mM Mg^2+): 88 ± 3.3% (10)
- % inhibition (WT GluN1/GluN2A; w/o Mg^2+): 95 ± 1.6% (19)
- % inhibition ([6]; w/ 1 mM Mg^2+): 83 ± 4.0% (10)
- % inhibition ([6]; w/o Mg^2+): 85 ± 1.7% (11)^¥
- reduced potency compared to the WT receptors ([6]; GluN2B-V618G, presence of 1 mM Mg^2+): 3.2 fold
- IC50 ([6]; w/ 1 mM Mg^2+): 71 µM
- IC50 ([6]; w/o Mg^2+): 45 µM
- % inhibition ([7]; w/ 1 mM Mg^2+): 87 ± 3.2% (8)
- % inhibition ([7]; w/o Mg^2+): 93 ± 3.2% (8)
- enhanced potency in comparison to WT NMDARs ([7]; GluN2B-V620M, absence of Mg^2+): 2.7 fold
- enhanced potency compared to the WT receptors ([7]; GluN2B-V620M, presence of 1 mM Mg^2+): 6.3 fold
- IC50 ([7]; w/ 1 mM Mg^2+): 3500 nM
- IC50 ([7]; w/o Mg^2+): 1800 nM
